The source of these data is ChEMBL document CHEMBL5543116, “Discovery of DNL343: A Potent, Selective, and Brain-Penetrant eIF2B Activator Designed for the Treatment of Neurodegenerative Diseases” (J Med Chem, 2024).

Broadly, the bioavailability is dose-corrected exposure relative to a reference, in per cent. Usually clearance stands for the rate of elimination divided by the concentration. By half-life is commonly meant the time needed for the level to fall by half in the phase considered. By IC50 is commonly meant the midpoint of a concentration-inhibition curve.

Series [1] can be described thus: Oral bioavailability in rat at 3 mg/kg. The format is ADME, organism-based. As to conditions: in vivo.
The nature of series [2]: Oral bioavailability in rat at 3 mg/kg by LC-MS/MS analysis. Type of series: ADME, organism-based. As to conditions: in vivo.
Series [3] is described as follows: Clearance in dog at 0.5 mg/kg, iv. The format is ADME, organism-based, Canis lupus familiaris. As to conditions: in vivo.
Series [4] deals with Mus musculus. Kind of series: Neuroprotective activity against Eif 2bS R191H […] mouse model assessed as reduction in Sic7a5 level in brain at 50 mg/kg, po administered for 2 days. The format is functional, organism-based. As to conditions: time 2.0 day.
Series [5] in a line: Half life in rat at 1 mg/kg, iv by LC-MS/MS analysis. As to conditions: in vivo. The format is ADME, organism-based.
Series [6] is described as follows: Oral bioavailability in cynomolgus monkey at 1 mg/kg. Type of series: ADME, organism-based, Macaca fascicularis. As to conditions: in vivo.
The nature of series [7]: Clearance in rat at 1 mg/kg, iv. Type of series: ADME, organism-based. As to conditions: in vivo.
The target of series [8] is Voltage-gated inwardly rectifying potassium channel KCNH2 (Homo sapiens, UniProt Q12809). Kind of series: Inhibition of hERG manual patch clamp assay. Type of series: toxicity. In general terms: The hERG channel carries a current that helps repolarise heart muscle cells.
The nature of series [9]: Metabolic stability in human liver microsome assessed as hepatic clearance. Type of series: ADME. As to conditions: liver microsomes.
Series [10] can be described thus: Oral bioavailability in dog at 1 mg/kg. The format is ADME, organism-based, Canis lupus familiaris. As to conditions: in vivo.
The nature of series [11]: Half life in rat at 1 mg/kg, iv. The format is ADME, organism-based. As to conditions: in vivo.
A short description of series [12]: Volume of distribution at steady state in cynomolgus monkey at 0.5 mg/kg, iv. Type of series: ADME, organism-based, Macaca fascicularis. As to conditions: in vivo, read-out: Vdss.
Series [13] is described as follows: Clearance in rat at 1 mg/kg, iv by LC-MS/MS analysis. The format is ADME, organism-based. As to conditions: in vivo.
Series [14] relates to Mus musculus. Kind of series: Neuroprotective activity against Eif 2bS R191H […] mouse model assessed as reduction in asns level in brain at 50 mg/kg, po administered for 2 days. Type of series: functional, organism-based. As to conditions: time 2.0 day.
Series [15] has as its system Mus musculus. Kind of series: Neuroprotective activity against Eif 2bS R191H […] mouse model assessed as reduction in Psat1 level in brain at 50 mg/kg, po administered for 2 days. The format is functional, organism-based. As to conditions: time 2.0 day.
Series [16] concerns Mus musculus. Kind of series: Neuroprotective activity against Eif 2bS R191H […] mouse model assessed as reduction in trib3 level in brain at 50 mg/kg, po administered for 2 days. The format is functional, organism-based. As to conditions: time 2.0 day.

Calls of active or inactive are those of the source.

Sequence of Voltage-gated inwardly rectifying potassium channel KCNH2 (Q12809 whole entry): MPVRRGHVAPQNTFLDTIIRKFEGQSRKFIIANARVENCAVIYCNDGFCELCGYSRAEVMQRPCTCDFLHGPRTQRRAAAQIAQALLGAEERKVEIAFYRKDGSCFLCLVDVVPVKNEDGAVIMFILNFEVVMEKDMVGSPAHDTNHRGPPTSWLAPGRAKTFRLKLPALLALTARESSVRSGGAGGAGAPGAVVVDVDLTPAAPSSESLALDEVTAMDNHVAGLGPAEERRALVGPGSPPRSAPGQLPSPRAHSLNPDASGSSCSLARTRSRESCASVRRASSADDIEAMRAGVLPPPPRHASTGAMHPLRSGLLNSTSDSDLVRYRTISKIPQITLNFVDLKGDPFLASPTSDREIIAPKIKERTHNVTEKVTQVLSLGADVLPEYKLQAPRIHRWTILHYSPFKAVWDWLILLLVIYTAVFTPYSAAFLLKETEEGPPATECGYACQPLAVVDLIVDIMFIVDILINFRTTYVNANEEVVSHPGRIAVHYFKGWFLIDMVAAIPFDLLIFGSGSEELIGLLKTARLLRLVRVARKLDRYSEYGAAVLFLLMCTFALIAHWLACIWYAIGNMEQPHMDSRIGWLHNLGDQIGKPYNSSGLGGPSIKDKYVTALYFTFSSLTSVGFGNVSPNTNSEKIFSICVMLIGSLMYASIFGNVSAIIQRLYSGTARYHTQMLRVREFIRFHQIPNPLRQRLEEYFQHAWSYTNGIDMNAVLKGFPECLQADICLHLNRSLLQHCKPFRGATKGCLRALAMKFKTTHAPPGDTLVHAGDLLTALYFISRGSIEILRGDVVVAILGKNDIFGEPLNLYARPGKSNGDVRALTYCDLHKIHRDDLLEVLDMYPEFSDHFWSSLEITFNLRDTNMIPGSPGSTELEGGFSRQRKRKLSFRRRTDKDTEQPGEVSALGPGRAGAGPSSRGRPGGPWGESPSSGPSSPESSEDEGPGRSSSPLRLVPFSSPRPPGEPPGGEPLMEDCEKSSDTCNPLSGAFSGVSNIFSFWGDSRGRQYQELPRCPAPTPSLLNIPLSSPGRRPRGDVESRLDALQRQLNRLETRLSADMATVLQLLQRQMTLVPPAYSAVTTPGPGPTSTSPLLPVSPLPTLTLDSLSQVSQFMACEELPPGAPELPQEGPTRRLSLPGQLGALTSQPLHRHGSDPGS

For the molecule `O=C(COc1ccc(Cl)cc1)NC12CC(c3nnc([C@H]4C[C@@H](OC(F)(F)F)C4)o3)(C1)C2` [EVETIFATOR], the bioavailability is 56% in [1], 65% in [2], greater than 99% in series [6] and greater than 99% in series [10]. In addition, the clearance in series [3] turned out to be 4.8 mL/min/kg; in [7], 0.4 mL/min/kg; in series [13] it was 0.4 mL/min/kg. Further, the result in the series on Mus musculus [4], in the series with Mus musculus [14], with Mus musculus [15] and in the series with Mus musculus [16] was Active. The half-life in [5] and in series [11] was 12.5 h each time. The molecule also registered an IC50 in [8] of 3 µM. The CLhep predicted in series [9] is less than 6 mL/min/kg. Also, the Vd in series [12] was 1.9 L/kg.
